Data on 39 molecules can be found in patent US20160158200A1, “Combinations of Hepatitis C Virus Inhibitors” (priority 2013, published 2016).

The test system of the test is HCV genotype-1a variant with glutamine 30 changed to glutamate in the NS5A protein. Type of test: cell-based. As to conditions: test compound titrated with BMS-790052 fixed at 200 nM; genotype 1a Q30E replicon. In outline: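 Synergy was assessed by combining several fixed amounts of an NS5A-targeting compound with a titration of the second compound of interest.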

As to `CC(C)(C)[C@H](Nc1ncc(Br)cn1)c1nc(-c2ccc(-c3ccc(-c4c[nH]c([C@@H](Nc5ncc(Br)cn5)C(C)(C)C)n4)cc3)cc2)c[nH]1` [Compound W-16A], the “Fold-Synergistic 1a (Q30E)” value was above 10 fold.

Consider `CC(C)(C)[C@H](N)c1nc(-c2ccc(-c3ccc(-c4c[nH]c([C@@H](Nc5ncc(Br)cn5)C(C)(C)C)n4)cc3)cc2)c[nH]1` [Compound W-16B], for which the “Fold-Synergistic 1a (Q30E)” value is reported as below 10 fold. Regarding `CC(C)(C)[C@H](NC(=O)C(=O)c1cccs1)c1nc(-c2ccc(-c3ccc(-c4c[nH]c([C@@H](NC(=O)C(=O)c5cccs5)C(C)(C)C)n4)cc3)cc2)c[nH]1` [Compound W-19], the “Fold-Synergistic 1a (Q30E)” value is recorded as above 100 fold. The same measure for `CC(C)(C)[C@H](NC(=O)C(=O)c1ccco1)c1nc(-c2ccc(-c3ccc(-c4c[nH]c([C@@H](NC(=O)C(=O)c5ccco5)C(C)(C)C)n4)cc3)cc2)c[nH]1` [Compound W-20]: above 100 fold; for `CC(C)(C)[C@H](NC(=O)C(=O)N1CCCC1)c1nc(-c2ccc(-c3ccc(-c4c[nH]c([C@@H](NC(=O)C(=O)N5CCCC5)C(C)(C)C)n4)cc3)cc2)c[nH]1` [Compound W-21]: above 100 fold; for `CC(C)(C)[C@H](NC(=O)C(=O)N1CCC(F)(F)C1)c1nc(-c2ccc(-c3ccc(-c4c[nH]c([C@@H](NC(=O)C(=O)N5CCC(F)(F)C5)C(C)(C)C)n4)cc3)cc2)c[nH]1` [Compound W-22]: above 100 fold. The same measure for `CC(C)(C)[C@H](NC(=O)C(=O)N1CCC(F)(F)CC1)c1nc(-c2ccc(-c3ccc(-c4c[nH]c([C@@H](NC(=O)C(=O)N5CCC(F)(F)CC5)C(C)(C)C)n4)cc3)cc2)c[nH]1` [Compound W-24]: above 100 fold. Next, `CC(C)(C)[C@H](NC(=O)C(=O)N1CCOCC1)c1nc(-c2ccc(-c3ccc(-c4c[nH]c([C@@H](NC(=O)C(=O)N5CCOCC5)C(C)(C)C)n4)cc3)cc2)c[nH]1` [Compound W-25]: above 100 fold. With `CC(C)(C)[C@H](NC(=O)C(=O)N1CCC(F)CC1)c1nc(-c2ccc(-c3ccc(-c4c[nH]c([C@@H](NC(=O)C(=O)N5CCC(F)CC5)C(C)(C)C)n4)cc3)cc2)c[nH]1` [Compound W-26], the “Fold-Synergistic 1a (Q30E)” value is given as above 100 fold.

In the case of `CC(C)(C)[C@H](NC(=O)C(=O)N1CC(F)(F)C1)c1nc(-c2ccc(-c3ccc(-c4c[nH]c([C@@H](NC(=O)C(=O)N5CC(F)(F)C5)C(C)(C)C)n4)cc3)cc2)c[nH]1` [Compound W-28], the “Fold-Synergistic 1a (Q30E)” value is above 100 fold. The same measure for `CCOC(=O)C(=O)N[C@H](c1nc(-c2ccc(-c3ccc(-c4c[nH]c([C@@H](NC(=O)C(=O)OCC)C(C)(C)C)n4)cc3)cc2)c[nH]1)C(C)(C)C` [Compound W-30]: above 100 fold.

For the molecule `CC(C)(C)[C@H](Nc1ncccn1)c1nc(-c2ccc(-c3ccc(-c4c[nH]c([C@@H](Nc5ncc(Br)cn5)C(C)(C)C)n4)cc3)cc2)c[nH]1` [Compound W-31], the “Fold-Synergistic 1a (Q30E)” value is above 10 fold.

For the molecule `CC(C)(C)[C@H](NC(=O)C(=O)N1CCCCCC1)c1nc(-c2ccc(-c3ccc(-c4c[nH]c([C@@H](NC(=O)C(=O)N5CCCCCC5)C(C)(C)C)n4)cc3)cc2)c[nH]1` [Compound W-32], the “Fold-Synergistic 1a (Q30E)” value was above 100 fold.

Take `CCN(CC)C(=O)C(=O)N[C@H](c1nc(-c2ccc(-c3ccc(-c4c[nH]c([C@@H](NC(=O)C(=O)N(CC)CC)C(C)(C)C)n4)cc3)cc2)c[nH]1)C(C)(C)C` [Compound W-33]: the “Fold-Synergistic 1a (Q30E)” value is reported as above 100 fold. The same measure for `CN1CCN(C(=O)C(=O)N[C@H](c2nc(-c3ccc(-c4ccc(-c5c[nH]c([C@@H](NC(=O)C(=O)N6CCN(C)CC6)C(C)(C)C)n5)cc4)cc3)c[nH]2)C(C)(C)C)CC1` [Compound W-35]: above 100 fold; for `CCN(CC(F)(F)F)C(=O)C(=O)N[C@H](c1nc(-c2ccc(-c3ccc(-c4c[nH]c([C@@H](NC(=O)C(=O)N(CC)CC(F)(F)F)C(C)(C)C)n4)cc3)cc2)c[nH]1)C(C)(C)C` [Compound W-37]: above 100 fold; for `CC1CCCCN1C(=O)C(=O)NC(c1nc(-c2ccc(-c3ccc(-c4c[nH]c(C(NC(=O)C(=O)N5CCCCC5C)C(C)(C)C)n4)cc3)cc2)c[nH]1)C(C)(C)C` (stereo not drawn) [Compound W-38]: above 100 fold. Consider `CC1([C@H](NC(=O)C(=O)N2CCC(F)(F)CC2)c2nc(-c3ccc(-c4ccc(-c5c[nH]c([C@@H](NC(=O)C(=O)N6CCC(F)(F)CC6)C6(C)CC6)n5)cc4)cc3)c[nH]2)CC1.O=C(O)C(F)(F)F` [Compound W-39], for which the “Fold-Synergistic 1a (Q30E)” value was above 100 fold. Turning to `CC(C)(C)[C@H](NC(=O)[C@@]1(N)C[C@@H]1c1ccccc1)c1nc(-c2ccc(-c3ccc(-c4c[nH]c([C@@H](NC(=O)[C@@]5(N)C[C@@H]5c5ccccc5)C(C)(C)C)n4)cc3)cc2)c[nH]1` [Compound W-41], the “Fold-Synergistic 1a (Q30E)” value is above 100 fold. Next, `CC(C)(C)[C@H](NC(=O)C(N)=O)c1nc(-c2ccc(-c3ccc(-c4c[nH]c([C@@H](NC(=O)C(N)=O)C(C)(C)C)n4)cc3)cc2)c[nH]1` [Compound W-42]: above 10 fold; `CC(C)(C)OC(=O)C(=O)N[C@H](c1nc(-c2ccc(-c3ccc(-c4c[nH]c([C@@H](NC(=O)C(=O)OC(C)(C)C)C(C)(C)C)n4)cc3)cc2)c[nH]1)C(C)(C)C` [Compound W-43A]: above 100 fold; `CCNC(=O)C(=O)N[C@H](c1nc(-c2ccc(-c3ccc(-c4c[nH]c([C@@H](NC(=O)C(=O)OC(C)(C)C)C(C)(C)C)n4)cc3)cc2)c[nH]1)C(C)(C)C` [Compound W-43B]: above 100 fold. For `CC(C)(C)[C@H](NC(=O)C(=O)O)c1nc(-c2ccc(-c3ccc(-c4c[nH]c([C@@H](NC(=O)C(=O)O)C(C)(C)C)n4)cc3)cc2)c[nH]1` [Compound W-44], the “Fold-Synergistic 1a (Q30E)” value is listed as above 10 fold. In the case of `C[C@@H]1CN(C(=O)C(=O)N[C@H](c2nc(-c3ccc(-c4ccc(-c5c[nH]c([C@@H](NC(=O)C(=O)N6C[C@@H](C)O[C@@H](C)C6)C(C)(C)C)n5)cc4)cc3)c[nH]2)C(C)(C)C)C[C@H](C)O1` [Compound W-45], the “Fold-Synergistic 1a (Q30E)” value is above 100 fold. The same measure for `CC(C)(C)[C@H](NC(=O)C(=O)N1CCCC(F)(F)C1)c1nc(-c2ccc(-c3ccc(-c4c[nH]c([C@@H](NC(=O)C(=O)N5CCCC(F)(F)C5)C(C)(C)C)n4)cc3)cc2)c[nH]1` [Compound W-46A]: above 100 fold; for `CC(C)(C)[C@H](NC(=O)C(=O)N(CCC#N)C1CC1)c1nc(-c2ccc(-c3ccc(-c4c[nH]c([C@@H](NC(=O)C(=O)N(CCC#N)C5CC5)C(C)(C)C)n4)cc3)cc2)c[nH]1` [Compound W-48]: above 100 fold; for `CC(C)N(C(=O)C(=O)N[C@H](c1nc(-c2ccc(-c3ccc(-c4c[nH]c([C@@H](NC(=O)C(=O)N(C(C)C)C5CC5)C(C)(C)C)n4)cc3)cc2)c[nH]1)C(C)(C)C)C1CC1` [Compound W-49]: above 100 fold. Next, `CN(C(=O)C(=O)N[C@H](c1nc(-c2ccc(-c3ccc(-c4c[nH]c([C@@H](NC(=O)C(=O)N(C)C5CC5)C(C)(C)C)n4)cc3)cc2)c[nH]1)C(C)(C)C)C1CC1` [Compound W-50]: above 100 fold; `CC(C)C(NC(=O)C(=O)N1CCCCCC1)c1nc(-c2ccc(-c3ccc(-c4c[nH]c(C(NC(=O)C(=O)N5CCCCCC5)C(C)C)n4)cc3)cc2)c[nH]1` (stereo not drawn) [Compound W-52]: above 100 fold. Next, `CC(C)C(NC(=O)C(=O)N1CCC(C(F)(F)F)CC1)c1nc(-c2ccc(-c3ccc(-c4c[nH]c(C(NC(=O)C(=O)N5CCC(C(F)(F)F)CC5)C(C)C)n4)cc3)cc2)c[nH]1` (stereo not drawn) [Compound W-53]: above 100 fold; `CC1CN(C(=O)C(=O)NC(c2nc(-c3ccc(-c4ccc(-c5c[nH]c(C(NC(=O)C(=O)N6CC(C)OC(C)C6)C(C)C)n5)cc4)cc3)c[nH]2)C(C)C)CC(C)O1` (stereo not drawn) [Compound W-54]: above 100 fold; `CC(C)C(NC(=O)C(=O)N(C(C)C)C1CC1)c1nc(-c2ccc(-c3ccc(-c4c[nH]c(C(NC(=O)C(=O)N(C(C)C)C5CC5)C(C)C)n4)cc3)cc2)c[nH]1` (stereo not drawn) [Compound W-55]: above 100 fold. Take `CCN(CC(F)(F)F)C(=O)C(=O)NC(c1nc(-c2ccc(-c3ccc(-c4c[nH]c(C(NC(=O)C(=O)N(CC)CC(F)(F)F)C(C)C)n4)cc3)cc2)c[nH]1)C(C)C` (stereo not drawn) [Compound W-56]: the “Fold-Synergistic 1a (Q30E)” value is above 100 fold. `CC1([C@H](NC(=O)C(=O)N2CCCCCC2)c2nc(-c3ccc(-c4ccc(-c5c[nH]c([C@@H](NC(=O)C(=O)N6CCCCCC6)C6(C)CC6)n5)cc4)cc3)c[nH]2)CC1` [Compound W-57]: the “Fold-Synergistic 1a (Q30E)” value was above 100 fold.

On to `CC(C)N(C(=O)C(=O)N[C@H](c1nc(-c2ccc(-c3ccc(-c4c[nH]c([C@@H](NC(=O)C(=O)N(C(C)C)C5CC5)C5(C)CC5)n4)cc3)cc2)c[nH]1)C1(C)CC1)C1CC1` [Compound W-58], for which the “Fold-Synergistic 1a (Q30E)” value is recorded as above 100 fold. Next, `CC1([C@H](NC(=O)C(=O)N2CCC(C(F)(F)F)CC2)c2nc(-c3ccc(-c4ccc(-c5c[nH]c([C@@H](NC(=O)C(=O)N6CCC(C(F)(F)F)CC6)C6(C)CC6)n5)cc4)cc3)c[nH]2)CC1` [Compound W-59]: above 100 fold. As for `CC(C)(C)[C@H](NC(=O)C(=O)N1CCC(C(F)(F)F)CC1)c1nc(-c2ccc(-c3ccc(-c4c[nH]c([C@@H](NC(=O)C(=O)N5CCC(C(F)(F)F)CC5)C(C)(C)C)n4)cc3)cc2)c[nH]1` [Compound W-60], the “Fold-Synergistic 1a (Q30E)” value is listed as above 100 fold. For the molecule `C[C@@H]1CN(C(=O)C(=O)N[C@H](c2nc(-c3ccc(-c4ccc(-c5c[nH]c([C@@H](NC(=O)C(=O)N6C[C@@H](C)O[C@@H](C)C6)C6(C)CC6)n5)cc4)cc3)c[nH]2)C2(C)CC2)C[C@H](C)O1` [Compound W-61], the “Fold-Synergistic 1a (Q30E)” value is recorded as above 100 fold. The same measure for `CC1([C@H](NC(=O)C2(N3CCC(F)(F)CC3)COC2)c2nc(-c3ccc(-c4ccc(-c5c[nH]c([C@@H](NC(=O)C6(N7CCC(F)(F)CC7)COC6)C6(C)CC6)n5)cc4)cc3)c[nH]2)CC1` [Compound W-62]: above 100 fold.
